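Following 48 hours of exposure in 96-well plates, responses at five concentrations were used to interpolate endpoints linearly. The concentration for full growth arrest is given as TGI.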 Some results are limits rather than exact numbers.

The text below walks through data of PubChem BioAssay (NCI).

For one assay, the system named is MALME-3M melanoma. Put plainly: NCI anticancer screen, dose series, 48 h.
Compound `COc1cccc2c1OCC1Cc3ccccc3OC21` (configuration not stated) yielded a TGI above 100 µM.

`O=C1CS(=O)(=O)C(c2cccc(Oc3ccccc3)c2)N1c1cc(Cl)ccc1Cl` (configuration not stated): the TGI was above 100 µM.

`COc1ccc(OC)c2sc(N3C(=O)/C(=C/c4cccc([N+](=O)[O-])c4)N=C3c3ccccc3)nc12`: the TGI is above 100 µM.

Regarding `Cc1cccc(/C(Br)=C2/OC(=O)c3ccccc32)c1`, the TGI was above 100 µM.

`CC#CC(O)(C(=O)OC1CC(C)N(C)C(C)(C)C1)C1CCCC1` (configuration not stated) displayed a TGI above 100 µM.

`CCOC(=O)C1CCC(=O)N1C(=O)c1ccccc1Cl` (configuration not stated) came in with a TGI above 100 µM.

For the compound `CCOC(=O)c1ccc(Nc2nc3ccc(C(F)(F)F)cc3nc2C(=O)OCC)cc1`, the TGI is above 100 µM.

In the case of `COc1ccc(C2c3cc4c(cc3OC(NCCO)C2C)OCO4)cc1` (configuration not stated), the TGI amounted to 47.7 µM.

Turning to `C/C(=N\Nc1nc2ccccc2s1)c1ccc2ccccc2n1`, the TGI is above 100 µM.

`O=C(/C=C/c1ccc2c(c1)OCO2)Cc1nc2ccccc2[nH]c1=O` had a TGI of 43.4 µM.

The compound `O=[N+]([O-])/C(Cl)=C(\NCCN/C(C(Cl)=C(Cl)Cl)=C(/Cl)[N+](=O)[O-])C(Cl)=C(Cl)Cl` gave a TGI above 100 µM.

The compound `CC1=NNC(=O)C1C1CC(c2c[nH]c3ccccc23)=NN=C1Cl` (configuration not stated) returned a TGI above 100 µM.

Turning to `COc1cc(C2c3cc4c(cc3[C@@H](Nc3ccc5c(c3)OCO5)C3COC(=O)[C@H]23)OCO4)cc(OC)c1O` (some centres not stated), the TGI stood at 10.1 µM.

A further assay relates to CCRF-CEM leukemia. Put plainly: NCI anticancer screen, dose series, 48 h.
Compound `O=C(CC(C(=O)c1ccco1)c1ccco1)c1ccco1` (configuration not stated) registered a TGI above 100 µM.

Take `COc1cccc2c1OCC1Cc3ccccc3OC21` (configuration not stated): the TGI was above 100 µM.

Regarding `O=C1CS(=O)(=O)C(c2cccc(Oc3ccccc3)c2)N1c1cc(Cl)ccc1Cl` (configuration not stated), the TGI was above 100 µM.

In turn, `COc1ccc(OC)c2sc(N3C(=O)/C(=C/c4cccc([N+](=O)[O-])c4)N=C3c3ccccc3)nc12` returned a TGI of 78.2 µM.

On to `CC(C)C(N)C(=O)NC(CCC(=O)NCCCCC(N)C(=O)NCCCNc1ccc([N+](=O)[O-])c2[nH]c3ccccc3c(=O)c12)C(N)=O` (configuration not stated), for which the TGI was above 100 µM.

Consider `Cc1cccc(/C(Br)=C2/OC(=O)c3ccccc32)c1`, for which the TGI was above 100 µM.

As to `CC#CC(O)(C(=O)OC1CC(C)N(C)C(C)(C)C1)C1CCCC1` (configuration not stated), the TGI was above 100 µM.

`CC1(C)OC2COC3([C@@H]4OC(C)(C)O[C@@H]4CO)OC(C)(C)OC3C2O1` (some centres not stated) came in with a TGI above 100 µM.

`CCOC(=O)C1CCC(=O)N1C(=O)c1ccccc1Cl` (configuration not stated) registered a TGI above 100 µM.

For `CCOC(=O)c1ccc(Nc2nc3ccc(C(F)(F)F)cc3nc2C(=O)OCC)cc1`, the TGI is above 100 µM.

`COc1ccc(C2c3cc4c(cc3OC(NCCO)C2C)OCO4)cc1` (configuration not stated): the TGI was 52.4 µM.

Consider `COc1cc(/C=C2\CCC(C)/C(=C\c3cc(OC)c(OC)c(OC)c3)C2=O)cc(OC)c1OC` (configuration not stated), for which the TGI worked out at 4.1 µM.

For `COC(=O)[C@H](Cc1ccccc1)NC(=O)N(CCC#N)CCN(C(=O)N[C@@H](Cc1ccccc1)C(=O)OC)c1ccccc1`, the TGI stood at 87 µM.

For `C/C(=N\Nc1nc2ccccc2s1)c1ccc2ccccc2n1`, the TGI was found to be 63.7 µM.

`CN1N=C(c2ccncc2)OC1c1ccccc1F` (configuration not stated) had a TGI above 100 µM.

Compound `O=C(/C=C/c1ccc2c(c1)OCO2)Cc1nc2ccccc2[nH]c1=O` showed a TGI above 100 µM.

`O=[N+]([O-])/C(Cl)=C(\NCCN/C(C(Cl)=C(Cl)Cl)=C(/Cl)[N+](=O)[O-])C(Cl)=C(Cl)Cl` registered a TGI above 100 µM.

`Cc1ccc(NC(=O)/C(Cc2nc3ccc([N+](=O)[O-])cc3[nH]c2=O)=N\NC(=O)C[n+]2ccccc2)c(C)c1` showed a TGI of 61.1 µM.

As to `COc1ccc(/C=N/n2c(C)nc3c(sc(=S)n3-c3ccccc3)c2=O)cc1`, the TGI came to 54.2 µM.

As to `CCN1C(=O)C(=C/C=C/c2ccc(N(CC)CC)cc2)C(=O)N(CC)C1=S`, the TGI was above 100 µM.

Regarding `CC1=NNC(=O)C1C1CC(c2c[nH]c3ccccc23)=NN=C1Cl` (configuration not stated), the TGI came out at 69.2 µM.

Turning to `COc1cc(C2c3cc4c(cc3[C@@H](Nc3ccc5c(c3)OCO5)C3COC(=O)[C@H]23)OCO4)cc(OC)c1O` (some centres not stated), the TGI came to 5.37 µM.

A further assay has as its system NCI-H226 lung. Put plainly: NCI anticancer screen, dose series, 48 h.
As to `O=C(CC(C(=O)c1ccco1)c1ccco1)c1ccco1` (configuration not stated), the TGI is above 100 µM.

In turn, `COc1cccc2c1OCC1Cc3ccccc3OC21` (configuration not stated) displayed a TGI above 100 µM.

The compound `O=C1CS(=O)(=O)C(c2cccc(Oc3ccccc3)c2)N1c1cc(Cl)ccc1Cl` (configuration not stated) registered a TGI of 41.5 µM.

`CC(C)C(N)C(=O)NC(CCC(=O)NCCCCC(N)C(=O)NCCCNc1ccc([N+](=O)[O-])c2[nH]c3ccccc3c(=O)c12)C(N)=O` (configuration not stated) registered a TGI above 100 µM.

Consider `CC#CC(O)(C(=O)OC1CC(C)N(C)C(C)(C)C1)C1CCCC1` (configuration not stated), for which the TGI is above 100 µM.

As for `CC1(C)OC2COC3([C@@H]4OC(C)(C)O[C@@H]4CO)OC(C)(C)OC3C2O1` (some centres not stated), the TGI is above 100 µM.

As for `CCOC(=O)C1CCC(=O)N1C(=O)c1ccccc1Cl` (configuration not stated), the TGI is above 100 µM.

As to `CCOC(=O)c1ccc(Nc2nc3ccc(C(F)(F)F)cc3nc2C(=O)OCC)cc1`, the TGI is above 100 µM.

For the compound `COc1ccc(C2c3cc4c(cc3OC(NCCO)C2C)OCO4)cc1` (configuration not stated), the TGI was 90.2 µM.

`COC(=O)[C@H](Cc1ccccc1)NC(=O)N(CCC#N)CCN(C(=O)N[C@@H](Cc1ccccc1)C(=O)OC)c1ccccc1`: the TGI amounted to 89 µM.

`CN1N=C(c2ccncc2)OC1c1ccccc1F` (configuration not stated) displayed a TGI above 100 µM.

Consider `O=[N+]([O-])/C(Cl)=C(\NCCN/C(C(Cl)=C(Cl)Cl)=C(/Cl)[N+](=O)[O-])C(Cl)=C(Cl)Cl`, for which the TGI was above 100 µM.
